Source: article PMC11594329, “Development of LAT1-Selective Nuclear Medicine Therapeutics Using Astatine-211” (International Journal of Molecular Sciences, 2024)

Test system: PANC-1 tumor model
Assay: Tissue distribution in nude mice (PANC-1 tumor model)
Type: in vivo, BALB/c nu/nu mice
Conditions: nude mice (PANC-1 tumor model)
Procedure: BALB/c nu/nu mice (male, 5 weeks old) were purchased from Japan SLC (Shizuoka, Japan) and subcutaneously transplanted at a density of 1 × 10^7 cells/mouse. PANC-1 cells that reached the logarithmic growth phase were transplanted subcutaneously by mixing a 1 × 10^8 cells/mL cell suspension with an equivalent volume of Matrigel (Corning, Corning, NY, USA) to obtain 1 × 10^7 cells per mouse. Experiments were performed after the size of the transplanted tumor had exceeded 50 mm^3. The doses in the distribution experiments were as follows: ^211At-AAMT-OH-L (0.501 ± 0.011 MBq/mouse, 19.91 ± 0.59 g, n = 3) and ^211At-AAMT-O-Me-L (0.384 ± 0.003 MBq/mouse, 19.18 ± 0.38 g, n = 6 for Table 3), ^211At-AAMT-O-Me-L (158.10 ± 2.94 kBq/mouse, 19.27 ± 0.64 g, n = 6) and ^211At-AAMT-O-Me-D (135.08 ± 2.35 kBq/mouse, 18.64 ± 0.97 g, n = 6), ^211At-AAMT-O-Et-L (0.682 ± 0.011 MBq/mouse, 20.25 ± 1.41 g, n = 6), ^211At-AAMT-O-Pr-L (0.927 ± 0.020 MBq/mouse, 21.74 ± 0.37 g, n = 6).

`C[C@](N)(Cc1ccc(O)c([211At])c1)C(=O)O` [^211At-AAMT-OH-L, 3-[^211At] Astato-α-methyl-L-tyrosine] was tested, and the “Tissue distribution, Bladder” value (24 h after injection) was 1.01 ± 0.10 %ID/g, the “Tissue distribution, Blood” value (24 h after injection) was 0.04 ± 0.02 %ID/g and the “Tissue distribution, Bone” value (24 h after injection) was 4.29 ± 3.90 %ID/g. The “Tissue distribution, Brain” value (24 h after injection) was 0.68 ± 0.16 %ID/g, the “Tissue distribution, Cecum” value (24 h after injection) was 6.60 ± 2.78 %ID/g and the “Tissue distribution, Colon” value (24 h after injection) was 1.03 ± 0.34 %ID/g. The “Tissue distribution, Heart” value (24 h after injection) was 2.29 ± 1.20 %ID/g, the “Tissue distribution, Kidney” value (24 h after injection) was 0.07 ± 0.02 %ID/g and the “Tissue distribution, Liver” value (24 h after injection) was 1.02 ± 0.60 %ID/g. The “Tissue distribution, Lung” value (24 h after injection) was 1.90 ± 0.55 %ID/g, the “Tissue distribution, Pancreas” value (24 h after injection) was 2.39 ± 2.03 %ID/g and the “Tissue distribution, Salivary glands” value (24 h after injection) was 0.42 ± 0.17 %ID/g. The “Tissue distribution, Small intestine” value (24 h after injection) was 0.09 ± 0.01 %ID/g, the “Tissue distribution, Spleen” value (24 h after injection) was 0.72 ± 0.22 %ID/g and the “Tissue distribution, Stomach” value (24 h after injection) was 1.84 ± 0.81 %ID/g. The “Tissue distribution, Testis” value (24 h after injection) was 0.57 ± 0.44 %ID/g, the “Tissue distribution, Thyroid” value (24 h after injection) was 11.65 ± 4.36 %ID/g and the “Tissue distribution, Tumor” value (24 h after injection) was 0.71 ± 0.46 %ID/g. The “Amount remaining in cecum relative to ^211At-AAMT-O-Me-L” value (after 24 h) was 3.2 fold, the “Amount remaining in femur, including the bone marrow, relative to ^211At-AAMT-O-Me-L” value (after 24 h) was 5.7 fold and the “Amount remaining in pancreas relative to ^211At-AAMT-O-Me-L” value (after 24 h) was 4.1 fold. For the same compound, the “Amount remaining in thyroid relative to ^211At-AAMT-O-Me-L” value (after 24 h) was 5.2 fold.
